Data reported in US11684599B2, “Very-long-chain polyunsaturated fatty acids, elovanoid hydroxylated derivatives, and methods of use” (Board of Supervisors of Louisiana State University and …, priority 2017, dated 2023).

System: rats with fluid percussion injury (FPI)
Test: Traumatic brain injury (fluid percussion injury), neurobehavioral score and MRI
Format: in vivo
Settings: moderate FPI; 1 μg/per rat into subdural space 1 h after TBI; days 1-14; versus CSF
Method: FIGS. 23A and 23C: delivery via an intravenous injection; FIG. 23B: delivery via subdural injection. SD rats were subjected to a moderate fluid percussion injury (FPI) model and treated (1 μg/per rat) with 32- and 34 carbon elovanoids as the methyl ester (ME) or sodium salt (Na) (ELV-N32-ME, ELV-N34-ME, ELV-32-Na-d2, ELV-N34-Alkyne) or of vehicle (cerebral spinal fluid; CSF). Treatments were delivered into subdural space at 1 h after TBI. Animals received neurobehavioral examination (normal=0, maximal deficit=12) on days 1, 2, 3, 7 or 14. […] ELV-N34-Alkyne (IV, 300 μg/per animal). All animals received neurobehavioral examination (normal=0, maximal deficit=12) on days 1, 2, 3, 7 or 14.
FIG. 34 is a schematic representation of an experimental protocol for to study the effects of traumatic brain injury through one exemplary model. Briefly, moderate TBI was administered via fluid percussion injury (FPI) to the right parieto-occipital area in male Sprague Dawley rats followed by treatment with elovanoids, behavioral testing, and ex vivo MRI histopathology.
Briefly, Sprague-Dawley rats (280-350 g) were subjected to 4.8 mm craniotomy overlying the right parietal cortex (3.8 mm posterior to bregma and 2.5 mm lateral to midline) was performed 24 hours before fluid percussion injury. A plastic adaptor with a plug was positioned over the craniotomy. […]

Compound	neurologic score (normal=0, maximal deficit=12)
CC/C=C\C[C@H](O)\C=C/C=C/C=C/[C@H](O)C/C=C\C/C=C\CCCCCCCCCCCCC(=O)OC [ELV-N32-Me, methyl (14Z,17Z,20R,21E,23E,25Z,27S,29Z)-20,27-dihydroxydotriaconta-14,17,21,23,25,29-hexaenoate]	improved neurologic score
CC/C=C\C[C@H](O)\C=C/C=C/C=C/[C@H](O)C/C=C\C/C=C\CCCCCCCCCCCCCCC(=O)OC [ELV-N34-Me, methyl (16Z,19Z,22R,23E,25E,27Z,29S,31Z)-22,29-dihydroxytetratriaconta-16,19,23,25,27,31-hexaenoate]	improved neurologic score
